Test results reported in US20090175872A1, “Treatment of Conditions Involving Demyelination” (BIOGEN Idec MA Inc., priority 2005, published 2009).
One block for each molecule: values may come before it. No end group written: not given here. *: point of attachment. Biotin = O=C1N[C@H]2[C@H](CS[C@H]2CCCCC(=O)*)N1

Assays:
[1] = tested on: co-cultures of dorsal root ganglion (DRG) neurons and oligodendrocytes; experiment: Myelination in co-cultures of DRG neurons and oligodendrocytes; format: cell-based, rat; details: 4-week-old treated co-cultures, anti-MBP antibody
Experimental: The role of Sp35 in myelination was examined in vitro by treating co-cultures of dorsal root ganglion (DRG) neurons and oligodendrocytes with Sp35-Fc and testing for myelination by immunohistochemistry and electron microscopy. For these studies, it was necessary to first generate primary cultures of DRG neurons and of oligodendrocytes.
Female Long Evans rat E14-E17 embryonic dorsal root ganglia were cultured as described by Plant et al., J. Neurosci. 22:6083-91 (2002). Dissected DRGs were plated on poly-L-lysine-coated cover slips (100 μg/ml) for 2 weeks in the presence of fluorodeoxyuridine for days 2-6 and days 8-11 in NLA medium containing 1×B27, 100 ng/ml NGF (Invitrogen).
A2B5^+ oligodendrocytes were prepared as described in Example 1, and were harvested by trypsinization.
For coculture studies, A2B5^+ oligodendrocytes were added to DRG neuron drop cultures in the presence or absence of 10 μg/ml Sp35-Fc. The culture medium (Neurobasal medium supplemented with B27 and 100 ng/ml NGF) was changed, and fresh Sp35-Fc was added to the cells every 3 d. To identify changes in myelination, 2-week-old cultures were stained by immunohistochemical staining (“IHC”) for neurofilaments with anti-βIII-tubulin antibody to identify axons, or anti-MBP antibody to identify oligodendrocytes., and 4-week-old cultures were subjected to SDS-PAGE followed by western blot analyses to quantify the MBP. In selected examples, cells were fixed for electron microscopy studies by adding 2.5% gluteraldehyde directly onto the cover slips. Myelinated axons in the 2-week-old cultures were quantified by counting the number of myelinated internode bundles that were derived from single MBP^+ oligodendrocytes. Samples were analyzed in duplicate. Error bars denote individual determinations. P values in all studies were determined using a one-way analysis of variance. […]
We performed experiments to address the relative contributions to the myelination process of Sp35 in DRG neurons as compared to oligodendrocytes. We infected DRG neurons, oligodendrocytes and co-cultures (prepared as described in Example 5) with the FL-Sp35 and DN-Sp35 lentiviral vectors described in Example 1 and performed immunohistochemical straining for myelinated MBP^+ cells after two weeks. A 2-fold increase in MBP levels in co-cultures where both cells express DN-Sp35 and a 2-fold decrease in MBP levels in co-cultures where both cells express FL-Sp35 was observed (FIG. 10G).

[2] = target: T1, human ErbB2 (Homo sapiens, UniProt P04626); experiment: AP-Sp35 binding to ErbB2-transfected CHO cells; details: for binding to ErbB2 expressed in CHO cells: FIGS. 17B and 17C
T1 construct: expressed in transfected cells; host or cells: CHO cells, transient transfection with Fugene 6, assayed after 48 hours
Experimental: ErbB2 is a member of the type I family of transmembrane receptor tyrosine kinases. The family comprises four members: epidermal growth factor receptor (EGFR or ErbB1), ErB2 (HER2 or neu), ErbB3 and ErbB4. Oligodendrocyte differentiation is positively regulated by the ErbB2 receptor tyrosine kinase. To examine the potential interaction between Sp35 and ErB2, an N-terminal AP-tagged human Sp35 protein was tested for binding to human ErbB2-transfected Chinese hamster ovary (CHO) cells.
90% confluent CHO cells were transfected with various combinations of human ErbB2 vector expression plasmid using Fugene 6 reagents (Roche). After 48 hours, the transfected cells were washed with HBH (Hank's balanced salt solution, 1 mg/ml BSA, 20 mM HEPES (pH 7.0)) and incubated for 1.5 hours at 23° C. or […] with 4 μg/ml of AP-Sp35 (human placental alkaline phosphotase (AP) with an N-terminal six histidine tag, fused to the C-terminus of human Sp35 (residues 34-532), as described in Mi et al., Nat. Neurosci. 7:221-228 (2004)) or control AP-protein in HBH. Bound AP-Sp35 was detected directly or following detergent lysis of the cells by ELISA and enzymatic activity was quantified with 4-NPP as described in Mi et al. Nat. Neurosci. 7:221-228 (2004).
In order to identify the Sp35 domain that binds ErbB2, soluble truncated forms of AP-Sp35 were tested for binding. Both the LRR domain of Sp35 (amino acids 34-417 of SEQ ID NO:2) (AP-Sp35-LRR) and the extracellular domain of Sp35 (amino acids 34-532 of SEQ ID NO:2) (AP-Sp35) bound to ErbB2 expressed in CHO cells. […] FIGS. 17B and 17C.

Molecule: Ac-CLSPEKVC (also: cyclic, type not given here)
expression of MBP (western blot) [1]: no increase in MBP

Molecule: Ac-CLSPRKHC (Ac-CLSPRKHC-NH2; also: cyclic, type not given here)
expression of MBP (western blot) [1]: increased expression of MBP

Molecule: Biotin-GSGCKHSPLRC (cysteine pairing not given here)
expression of MBP (western blot) [1]: no increase in MBP

Molecule: Biotin-GSGCLSPEKVC (cysteine pairing not given here)
expression of MBP (western blot) [1]: no increase in MBP

Molecule: Biotin-GSGCLSPRKHC (cysteine pairing not given here)
expression of MBP (western blot) [1]: increased expression of MBP

EC50 ([2]; FIG. 17A, read-out: EC50 of binding to CHO cells expressing ErbB2): 3 nM
binding to ErbB2 expressed in CHO cells [2]: bound
B1: AP-Sp35: human placental alkaline phosphatase with six histidine tag fused to human Sp35 residues 34-532 (protein, listed as Homo sapiens)
chain: TGCPPRCECSAQDRAVLCHRKRFVAVPEGIPTETRLLDLGKNRIKTLNQDEFASFPHLEELELNENIVSAVEPGAFNNLFNLRTLGLRSNRLKLIPLGVFTGLSNLTKLDISENKIVILLDYMFQDLYNLKSLEVGDNDLVYISHRAFSGLNSLEQLTLEKCNLTSIPTEALSHLHGLIVLRLRHLNINAIRDYSFKRLYRLKVLEISHWPYLDTMTPNCLYGLNLTSLSITHCNLTAVPYLAVRHLVYLRFLNLSYNPISTIEGSMLHELLRLQEIQLVGGQLAVVEPYAFRGLNYLRVLNVSGNQLTTLEESVFHSVGNLETLILDSNPLACDCRLLWVFRRRWRLNFNRQQPTCATPEFVQGKEFKDFPDVLLPNYFTCRRARIRDRKAQQVFVDEGHTVQFVCRADGDPPPAILWLSPRKHLVSAKSNGRLTVFPDGTLEVRYAQVQDNGTYLCIAANAGGNDSMPAHLHVRSYSPDWPHQPNKTFAFISNQPGE
modifications: alkaline phosphatase fusion partner

binding to ErbB2 expressed in CHO cells [2]: no detectable binding
B2: AP-Sp35-Ig: AP-tagged Ig plus stalk domain of Sp35, amino acids 417-532 of SEQ ID NO:2 (protein, listed as Homo sapiens)
chain: RARIRDRKAQQVFVDEGHTVQFVCRADGDPPPAILWLSPRKHLVSAKSNGRLTVFPDGTLEVRYAQVQDNGTYLCIAANAGGNDSMPAHLHVRSYSPDWPHQPNKTFAFISNQPGE
modifications: AP tag fused

binding to ErbB2 expressed in CHO cells [2]: bound
B3: AP-Sp35-LRR: AP-tagged LRR domain of Sp35, amino acids 34-417 of SEQ ID NO:2 (protein, listed as Homo sapiens)
chain: TGCPPRCECSAQDRAVLCHRKRFVAVPEGIPTETRLLDLGKNRIKTLNQDEFASFPHLEELELNENIVSAVEPGAFNNLFNLRTLGLRSNRLKLIPLGVFTGLSNLTKLDISENKIVILLDYMFQDLYNLKSLEVGDNDLVYISHRAFSGLNSLEQLTLEKCNLTSIPTEALSHLHGLIVLRLRHLNINAIRDYSFKRLYRLKVLEISHWPYLDTMTPNCLYGLNLTSLSITHCNLTAVPYLAVRHLVYLRFLNLSYNPISTIEGSMLHELLRLQEIQLVGGQLAVVEPYAFRGLNYLRVLNVSGNQLTTLEESVFHSVGNLETLILDSNPLACDCRLLWVFRRRWRLNFNRQQPTCATPEFVQGKEFKDFPDVLLPNYFTCRR
modifications: AP tag fused
